Biological target: human PDE10A2 (Homo sapiens (Human), UniProt Q9Y233)
Assay: PDE10 fluorescence polarization (IMAP FP) inhibition assay
Assay type: biochemical
Details: human PDE10A2, FAM-labeled cAMP substrate, read-out: PDE10A Ki
Method: The activity of the compounds in accordance with the present invention as PDE10 inhibitors may be readily determined without undue experimentation using a fluorescence polarization (FP) methodology that is well known in the art (Huang, W., et al., J. Biomol Screen, 2002, 7: 215).
In a typical experiment the PDE10 inhibitory activity of the compounds of the present invention was determined in accordance with the following experimental method. PDE10A2 was amplified from human fetal brain cDNA (Clontech, Mountain View, Calif.) using a forward primer corresponding to nucleotides 56-77 of human PDE10A2 (Accession No. AF127480, Genbank Identifier 4894716), containing a Kozak consensus sequence, and a reverse primer corresponding to nucleotides 2406-2413 of human PDE10A2 (Accession No. AF127480, Genbank Identifier 4894716). Amplification with Easy-A polymerase (Stratagene, La Jolla, Calif.) was 95° C. for 2 minutes followed by thirty three cycles of 95° C. for 40 seconds, 55° C. for 30 seconds, and 72° C. for 2 minutes 48 seconds. Final extension was 72° C. for 7 minutes. The PCR product was TA cloned into pcDNA3.2-TOPO (Invitrogen, Carlsbad, Calif.) according to standard protocol. AD293 cells with 70-80% confluency were transiently transfected with human PDE10A2/pcDNA3.2-TOPO using Lipofectamine 2000 according to manufacturer specifications (Invitrogen, Carlsbad, Calif.). Cells were harvested 48 hours post-transfection and lysed by sonication (setting 3, 10×5 sec pulses) in a buffer containing 20 mM HEPES, 1 mM EDTA and protease inhibitor cocktail (Roche). Lysate was collected by centrifugation at 75,000×g for 20 minutes. Supernatant containing the cytoplasmic fraction was used for evaluation of PDE10A2 activity. The fluorescence polarization assay for cyclic nucleotide phosphodiesterases was performed using an IMAP® FP kit supplied by Molecular Devices, Sunnyvale, Calif. (product # R8139). IMAPU technology has been applied previously to phosphodiesterase assays (Huang, W., et al., J. Biomol Screen, 2002, 7: 215). Assays were performed at room temperature in 384-well microtiter plates with an incubation volume of 20.2 μL. Solutions of test compounds were prepared in DMSO and serially diluted with DMSO to yield 8 μL of each of 10 solutions differing by 3-fold in concentration, at 32 serial dilutions per plate. 100% inhibition is determined using a known PDE10 inhibitor, which can be any compound that is present at 5,000 times its Ki value in the assay described as follows, such as papaverine (see Siuciak, et al. Neuropharmacology (2006) 51:386-396; Becker, et al. Behav Brain Res (2008) 186(2):155-60; Threlfell, et al., J Pharmacol Exp Ther (2009) 328(3):785-795), 2-{4-[pyridin-4-yl-1-(2,2,2-trifluoroethyl)-1H-pyrazol-3-yl]phenoxymethyl}quinoline succinic acid or 2-[4-(1-methyl-4-pyridin-4-yl-1H-pyrazol-3-yl)-phenoxymethyl]quinoline succinic acid (see Schmidt, et al. J Pharmacol Exp Ther (2008) 325:681-690; Threlfell, et al., J Pharmacol Exp Ther (2009) 328(3): 785-795). 0% of inhibition is determined by using DMSO (1% final concentrations).
A Labcyte Echo 555 (Labcyte, Sunnyvale, Calif.) is used to dispense 200 nL from each well of the titration plate to the 384 well assay plate. A solution of enzyme (1/1600 dilution from aliquots; sufficient to produce 20% substrate conversion) and a separate solution of FAM-labeled cAMP PDE from Molecular Devices (product # R7506), at a final concentration of 50 nM are made in the assay buffer (10 mM Tris HCl, pH 7.2, 10 mM MgCl2, 0.05% NaN3 0.01% Tween-20, and 1 mM DTT). The enzyme and the substrate are then added to the assay plates in two consecutive additions of 10 μL, and then shaken to mix. The reaction is allowed to proceed at room temperature for 30 minutes. A binding solution is then made from the kit components, comprised of 80% Solution A, 20% Solution B and binding reagent at a volume of 1/600 the total binding solution.

Sequence of human PDE10A2 (Q9Y233 267-1055): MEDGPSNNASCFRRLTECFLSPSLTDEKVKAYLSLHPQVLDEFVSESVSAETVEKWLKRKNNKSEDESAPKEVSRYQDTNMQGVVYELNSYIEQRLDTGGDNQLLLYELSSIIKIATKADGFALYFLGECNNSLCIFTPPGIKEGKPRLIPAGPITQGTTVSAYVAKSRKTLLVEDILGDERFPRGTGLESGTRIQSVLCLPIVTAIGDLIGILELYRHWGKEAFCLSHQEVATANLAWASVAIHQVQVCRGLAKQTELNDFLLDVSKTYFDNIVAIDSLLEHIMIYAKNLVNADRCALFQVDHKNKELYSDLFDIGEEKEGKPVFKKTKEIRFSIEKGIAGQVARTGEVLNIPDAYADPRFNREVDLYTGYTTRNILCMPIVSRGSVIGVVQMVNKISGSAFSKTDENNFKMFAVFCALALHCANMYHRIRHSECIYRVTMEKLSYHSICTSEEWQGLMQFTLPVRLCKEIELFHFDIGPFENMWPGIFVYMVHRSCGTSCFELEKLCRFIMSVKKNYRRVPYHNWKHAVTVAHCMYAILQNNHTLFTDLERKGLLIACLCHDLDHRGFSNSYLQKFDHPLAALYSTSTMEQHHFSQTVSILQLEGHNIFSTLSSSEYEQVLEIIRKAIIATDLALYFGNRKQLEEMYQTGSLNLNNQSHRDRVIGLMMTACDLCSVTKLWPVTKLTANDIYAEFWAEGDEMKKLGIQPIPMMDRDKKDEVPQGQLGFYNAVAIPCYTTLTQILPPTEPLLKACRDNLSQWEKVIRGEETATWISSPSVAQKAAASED

SMILES | Ki [nM]
COC(=O)Cn1cc(-c2cnc(C)nc2OC[C@H]2C[C@@H]2c2ccc(C)cn2)ccc1=O [Example 1, methyl 2-(5-(2-methyl-4-(((1S,2S)-2-(5-methylpyridin-2-yl)cyclopropyl)methoxy)pyrimidin-5-yl)-2-oxopyridin-1(2H)-yl)acetate] | 4.39
COc1ccc([C@H]2C[C@@H]2COc2nc(C)ncc2-c2ccc(=O)n(C)c2)nc1 [Example 2, 5-(4-(((1S,2S)-2-(5-methoxypyridin-2-yl)cyclopropyl)methoxy)-2-methylpyrimidin-5-yl)-1-methylpyridin-2(1H)-one] | 1.01
Cc1ccc([C@H]2C[C@@H]2COc2nc(C)ncc2-c2ccc(=O)n(C)c2C)nc1 [Example 3, 1,6-dimethyl-5-(2-methyl-4-(((1S,2S)-2-(5-methylpyridin-2-yl)cyclopropyl)methoxy)pyrimidin-5-yl)pyridin-2(1H)-one] | 0.217
CCn1c(C)c(-c2cnc(C)nc2OC[C@H]2C[C@@H]2c2ccc(C)cn2)ccc1=O [Example 4, 1-ethyl-6-methyl-5-(2-methyl-4-(((1S,2S)-2-(5-methylpyridin-2-yl)cyclopropyl)methoxy)pyrimidin-5-yl)pyridin-2(1H)-one] | 1.95
CCn1cc(-c2cnc(C)nc2OC[C@H]2C[C@@H]2c2ccc(C)cn2)ccc1=O [Example 5, 1-ethyl-5-(2-methyl-4-(((1S,2S)-2-(5-methylpyridin-2-yl)cyclopropyl)methoxy)pyrimidin-5-yl)pyridin-2(1H)-one] | 1.1
COCCn1cc(-c2cnc(C)nc2OC[C@H]2C[C@@H]2c2ccc(C)cn2)ccc1=O [Example 6, 1-(2-methoxyethyl)-5-(2-methyl-4-(((1S,2S)-2-(5-methylpyridin-2-yl)cyclopropyl)methoxy)pyrimidin-5-yl)pyridin-2(1H)-one] | 1.38
COCCn1c(C)c(-c2cnc(C)nc2OC[C@H]2C[C@@H]2c2ccc(C)cn2)ccc1=O [Example 7, 1-(2-methoxyethyl)-6-methyl-5-(2-methyl-4-(((1S,2S)-2-(5-methylpyridin-2-yl)cyclopropyl)methoxy)pyrimidin-5-yl)pyridin-2(1H)-one] | 3.06
COn1cc(-c2cnc(C)nc2OC[C@H]2C[C@@H]2c2ccc(C)cn2)ccc1=O [Example 8, 1-methoxy-5-(2-methyl-4-(((1S,2S)-2-(5-methylpyridin-2-yl)cyclopropyl)methoxy)pyrimidin-5-yl)pyridin-2(1H)-one] | 2.33
Cc1ncc(-c2ccc(=O)n(C(C)C)c2)c(OC[C@H]2C[C@@H]2c2ccc3ccccc3n2)n1 [Example 9, 1-isopropyl-5-(2-methyl-4-(((1S,2S)-2-(quinolin-2-yl)cyclopropyl)methoxy)pyrimidin-5-yl)pyridin-2(1H)-one] | 0.014
Cc1ncc(-c2ccc(=O)n(-c3ccccc3)c2)c(OC[C@H]2C[C@@H]2c2ccc3ccccc3n2)n1 [Example 10, 5-(2-methyl-4-(((1S,2S)-2-(quinolin-2-yl)cyclopropyl)methoxy)pyrimidin-5-yl)-1-phenylpyridin-2(1H)-one] | 0.216
Cc1ncc(-c2ccc(=O)n(C(F)F)c2)c(OC[C@H]2C[C@@H]2c2ccc3ccccc3n2)n1 [Example 11, 1-(difluoromethyl)-5-(2-methyl-4-(((1S,2S)-2-(quinolin-2-yl)cyclopropyl)methoxy)pyrimidin-5-yl)pyridin-2(1H)-one] | 0.048
COn1cc(-c2cnc(C)nc2OC[C@H]2C[C@@H]2c2ccc3ccccc3n2)ccc1=O [Example 12, 1-methoxy-5-(2-methyl-4-(((1S,2S)-2-(quinolin-2-yl)cyclopropyl)methoxy)pyrimidin-5-yl)pyridin-2(1H)-one] | 0.053

Continued, values first:

Ki [nM] | SMILES
63.8 | COc1ccc([C@H]2C[C@@H]2COc2nc(C)ncc2-c2cc(=O)n(C)cc2[S+](C)[O-])nc1 (single isomer, unassigned) [Example 109, 4-(4-(((1S,2S)-2-(5-methoxypyridin-2-yl)cyclopropyl)methoxy)-2-methylpyrimidin-5-yl)-1-methyl-5-(methylsulfinyl)pyridin-2(1H)-one,R or S]
49 | COc1ccc([C@H]2C[C@@H]2COc2nc(C)ncc2-c2cc(=O)n(C)cc2[S+](C)[O-])nc1 (single isomer, unassigned) [Example 110, 4-(4-(((1S,2S)-2-(5-methoxypyridin-2-yl)cyclopropyl)methoxy)-2-methylpyrimidin-5-yl)-1-methyl-5-(methylsulfinyl)pyridin-2(1H)-one, S or R]
0.823 | Cc1ccc([C@H]2C[C@@H]2COc2nc(C)ncc2-c2ccc(=O)n(C(C)C)c2)nc1 [Example 13, 1-isopropyl-5-(2-methyl-4-(((1S,2S)-2-(5-methylpyridin-2-yl)cyclopropyl)methoxy)pyrimidin-5-yl)pyridin-2(1H)-one]
1.1 | Cc1ccc([C@H]2C[C@@H]2COc2nc(C)ncc2-c2ccc(=O)n(C(F)F)c2)nc1 [Example 14, 1-(difluoromethyl)-5-(2-methyl-4-(((1S,2S)-2-(5-methylpyridin-2-yl)cyclopropyl)methoxy)pyrimidin-5-yl)pyridin-2(1H)-one]
4.86 | Cc1ccc([C@H]2C[C@@H]2COc2nc(C)ncc2-c2ccc(=O)n(-c3ccccc3)c2)nc1 [Example 15, 5-(2-methyl-4-(((1S,2S)-2-(5-methylpyridin-2-yl)cyclopropyl)methoxy)pyrimidin-5-yl)-1-phenylpyridin-2(1H)-one]
0.185 | CCc1cc(-c2cnc(C)nc2OC[C@H]2C[C@@H]2c2ccc(OC)cn2)cn(C)c1=O [Example 16, 3-ethyl-5-(4-(((1S,2S)-2-(5-methoxypyridin-2-yl)cyclopropyl)methoxy)-2-methylpyrimidin-5-yl)-1-methylpyridin-2(1H)-one]
0.151 | COc1ccc([C@H]2C[C@@H]2COc2nc(C)ncc2-c2cc(OC)c(=O)n(C)c2)nc1 [Example 17, 3-methoxy-5-(4-(((1S,2S)-2-(5-methoxypyridin-2-yl)cyclopropyl)methoxy)-2-methylpyrimidin-5-yl)-1-methylpyridin-2(1H)-one]
1.29 | COc1ccc([C@H]2C[C@@H]2COc2nc(C)ncc2-c2cc(F)c(=O)n(C)c2)nc1 [Example 18, 3-fluoro-5-(4-(((1S,2S)-2-(5-methoxypyridin-2-yl)cyclopropyl)methoxy)-2-methylpyrimidin-5-yl)-1-methylpyridin-2(1H)-one]
4.68 | COc1ccc([C@H]2C[C@@H]2COc2nc(C)ncc2-c2ccc(=O)n(-c3ccccc3)c2)nc1 [Example 19, 5-(4-(((1S,2S)-2-(5-methoxypyridin-2-yl)cyclopropyl)methoxy)-2-methylpyrimidin-5-yl)-1-phenylpyridin-2(1H)-one]
1.21 | COc1ccc([C@H]2C[C@@H]2COc2nc(C)ncc2-c2ccc(=O)n(C(F)F)c2)nc1 [Example 20, 1-(difluoromethyl)-5-(4-(((1S,2S)-2-(5-methoxypyridin-2-yl)cyclopropyl)methoxy)-2-methylpyrimidin-5-yl)pyridin-2(1H)-one]
0.827 | COc1ccc([C@H]2C[C@@H]2COc2nc(C)ncc2-c2ccc(=O)n(C(C)C)c2)nc1 [Example 21, 1-isopropyl-5-(4-(((1S,2S)-2-(5-methoxypyridin-2-yl)cyclopropyl)methoxy)-2-methylpyrimidin-5-yl)pyridin-2(1H)-one]

From patent publication US9273033B2, “Substituted pyridone derivatives as PDE10 inhibitors” (Merck Sharp & Dohme Corp., priority 2012, dated 2016)
